{"source": "paper PMC10797624", "about": "“Multitracer Approach to Understanding the Complexity of Reactive Astrogliosis in Alzheimer’s Brains” (ACS Chemical Neuroscience, 2023)", "origin": "cited, not measured here", "key": {"[1]": {"test_system": "MAO-B", "design": "method as in PMID 32646880", "settings": "small brain section autoradiography"}, "[2]": {"test_system": "[^3H]-BU99008 binding sites", "design": "method as in PMID 33888872", "settings": "L-deprenyl vs [^3H]-BU99008"}}}
{"smiles": "NCCNC(=O)c1ccc(Cl)cn1", "note": "[lazabemide]", "values": [{"measurement": "displacement of [^18F]-SMBT-1 binding", "setting": "[1]", "value": "fully displaced"}]}
{"smiles": "C#CCN(C)[C@H](C)Cc1ccccc1", "note": "[L-deprenyl]", "values": [{"measurement": "binding sites and affinities vs [^3H]-BU99008", "setting": "[2]", "value": "multiple binding sites with pico- and micromolar affinities"}]}
